# Measured values published in patent US4751227A, “3-cyano-5-(6-imidazo[1,2-a]pyridyl)pyridin-2-ols useful as cardiotonics” (Eisai Co., Ltd., priority 1985, dated 1988).
# Columns and labels:
# mice = test: Acute toxicity test by oral administration in mice; format: in vivo; settings: 3 g/kg, 4 in each group
# Protocol: (§1) Acute toxicity was tested by oral administration in rats and mice. The results reveal that the compounds of the present invention have extremely low toxicity.
# platelets = test: Effect of compounds on platelet aggregation caused by collagen; format: cell-based, healthy volunteers; settings: Homo sapiens, collagen 1 μg/ml, read-out: inhibition rate of platelet aggregation
# Protocol: Effect of compounds on platelet aggregation
# Using platelets obtained from healthy volunteers, effect of compounds on platelet aggregation caused by collagen (1 μg/ml) was examined.
# [1] = tested on: isolated Guinea Pig heart muscles; test: Effects of compounds on contractile response of isolated Guinea Pig heart muscles (right ventricular papillary muscles); settings: Cavia porcellus, read-out: Contractilities; for activation at 100 µM: Concentration 10^-4 M; for activation at 10 µM: Concentration 10^-5 M; for activation at 1 µM: Concentration 10^-6 M
# Protocol: Effects of compounds on contractile response of isolated Guinea Pig heart muscles
# Male guinea pigs weighing 300 to 500 g were stunned with a blow on the head and exsanguinated. The chest was opened rapidly, the heart was excised and papillary muscles from the right ventricle were excised.
# The preparations were mounted in 10 ml organ bath which were filled with Krebs-Henseleit solution maintained at 36° C. and oxygenated with 95% O2 -5% CO2.
# Right ventricular papillary muscles were stimulated electrically at a rate of 1 Hz by a suprathreshold (1.2×threshold) rectangular pulse 3 ms in duration. The resting tension applied to the papillary muscles was adjusted to produce maximum developed tension. The developed tension was recorded isometrically by means of force-displacement transducer. The text compounds were dissolved in diluted hydrochloric acid and were added to the bath. Contractility after administration was compared to that prior to administration.
# The test compounds are those prepared in the examples later described.
# [2] = tested on: coronary and femoral blood flow; test: Effect of compounds on coronary and femoral blood flow in anesthetized dogs; format: in vivo, mongrel dogs; settings: intraarterial
# Protocol: Effect of compounds on coronary and femoral blood flow
# Using male and femal mongrel dogs thoracotomized at the left 4th intercostal space under artificial respiration and inhalation anesthesia with Halothane, effect of coronary and femoral blood flow was examined by intrarterial administration. By placing an electromagnetic flowprobe around the left circumflex coronary artery and the femoral artery, the blood flows of both arteries were measured. Shallow catheters were inserted in and fixed to the arterial branch distal to the flowprobe and the test compounds were intrarterially administered through the catheters. In this case, the blood pressure, the heart rate and the cardiac contractility were also recorded simultaneously. Each test compound was used by dissolving it in physiological saline, diluted hydrochloric acid or polyethylene glycol in a dose not accompanied by any change in the blood pressure, the heart rate and the cardiac contractility.
# rats = test: Acute toxicity test by oral administration in rats; format: in vivo; settings: 3 g/kg, 4 in each group
# Protocol: as §1
# Anesthetized Dog = test: Effect of compounds on cardiac contractility, heart rate and blood pressure in Anesthetized Dog; format: in vivo, mongrel dogs; settings: intravenous
# Protocol: Effect of compounds on cardiac contractility in Anesthetized Dog
# Using male and female mongrel dogs subjected to artificial respiration and anesthetized by inhalation of Halothane cardiotonic effect of compounds was examined. The aortic pressure and the left ventricular pressure were recorded with a catheter inserted from the femoral artery into the aorta of the chest and with a micro tip pressure transducer (Millar) inserted from the carotid into the left ventricle, respectively. The heart rate was monitored by means of a tachograph triggered by the left ventricular pressure pulse. As an index of cardiac contractility, a primary differentation (LV dp/dt max) of the left ventricular pressure pulse was recorded. The test compounds were dissolved in physiological saline or diluted hydrochloric acid or polyethylene glycol and the solutions were intravenously given through the catheter inserted into the femoral vein.
# Percent changes by the test compounds in cardiac contractility, heart rate and blood pressure obtained by the foregoing method are shown in Table 2, when compared to those prior to administration of the test compounds. In Table 2, the test compounds are those prepared in the examples later described.
SMILES,activation at 100 µM [1] [%],activation at 10 µM [1] [%],activation at 1 µM [1] [%],Change in Blood Pressure (Anesthetized Dog; 10 μg/kg) [%],Change in Cardiac Contractility (LV dp/dt max) (Anesthetized Dog; 10 μg/kg) [%],Change in Heart Rate (Anesthetized Dog; 10 μg/kg) [%],Change in Blood Pressure (Anesthetized Dog; 30 μg/kg) [%],Change in Cardiac Contractility (LV dp/dt max) (Anesthetized Dog; 30 μg/kg) [%],Change in Heart Rate (Anesthetized Dog; 30 μg/kg) [%],Change in Blood Pressure (Anesthetized Dog; 100 μg/kg) [%],Change in Cardiac Contractility (LV dp/dt max) (Anesthetized Dog; 100 μg/kg) [%],Change in Heart Rate (Anesthetized Dog; 100 μg/kg) [%],also measured
"Cc1[nH]c(=O)c(C#N)cc1-c1ccc2nccn2c1 [Example 1, 1,2-Dihydro-5-(imidazo[1,2-a]pyridin-6-yl)-6-methyl-2-oxo-3-pyridinecarbonitrile]",129,88,40.7,0,16,6,-5,68,15,-17,97,22,death in acute toxicity test (mice): no death was noted; inhibition at 1 µM (platelets; 1×10^-6 M): 41%; inhibition at 3 µM (platelets; 3×10^-6 M): 90%; inhibition at 0.3 µM (platelets; 3×10^-7 M): 14%; Coronary Blood Flow ([2]; dose 3 ug): 25 Δ%; Femoral Blood Flow ([2]; dose 3 ug): 18 Δ%; Coronary Blood Flow ([2]; dose 10 ug): 63 Δ%; Femoral Blood Flow ([2]; dose 10 ug): 51 Δ%; Femoral Blood Flow ([2]; dose 30 ug): 76 Δ%; death in acute toxicity test (rats): no death was noted
"CCc1[nH]c(=O)c(C#N)cc1-c1ccc2nc(C)cn2c1 [Example 2, 1,2-Dihydro-6-ethyl-5-(2-methylimidazo[1,2-a]pyridin-6-yl)-2-oxo-3-pyridinecarbonitrile]",106,73.5,34.1,–,–,–,–,–,–,–,–,–,–
"CCc1[nH]c(=O)c(C#N)cc1-c1ccc2nccn2c1 [Example 6, 1,2-Dihydro-6-ethyl-5-(imidazo[1,2-a]pyridin-6-yl)-2-oxo-3-pyridinecarbonitrile]",–,–,–,-1,14,0,-2,30,5,-7,58,10,–
"Cc1cn2cc(-c3cc(C#N)c(=O)[nH]c3C)ccc2n1 [Example 7, 1,2-Dihydro-6-methyl-5-(2-methylimidazo[1,2-a]pyridin-6-yl)-2-oxo-3-pyridinecarbonitrile]",130,95.7,56.7,0,21,8,-13,114,18,–,–,–,–
"Cc1[nH]c(=O)ccc1-c1ccc2nccn2c1 [Example 10, 1,2-Dihydro-6-methyl-5-(imidazo[1,2-a]pyridin-6-yl)-2-oxo-pyridine]",110,76.3,37.9,-2,11,2,-5,25,4,–,–,–,–
"COc1nc(C)c(-c2ccc3nccn3c2)cc1C#N [Example 14, 5-(Imidazo[1,2-a]pyridin-6-yl)-2-methoxy-6-methyl-3-pyridinecarbonitrile]",–,–,–,–,–,–,–,–,–,–,–,–,Change in Blood Pressure (Anesthetized Dog; 300 μg/kg): -6%; Change in Cardiac Contractility (LV dp/dt max) (Anesthetized Dog; 300 μg/kg): 10%; Change in Heart Rate (Anesthetized Dog; 300 μg/kg): 6%; Change in Blood Pressure (Anesthetized Dog; 1000 μg/kg): -4%; Change in Cardiac Contractility (LV dp/dt max) (Anesthetized Dog; 1000 μg/kg): 41%; Change in Heart Rate (Anesthetized Dog; 1000 μg/kg): 0%
